Measured values taken from ChEMBL document CHEMBL3272309, “Potential central nervous system antitumor agents. Aziridinylbenzoquinones. 1” (J Med Chem, 1976).

Assays:
[1] = Antitumor activity against mouse ependymoblastoma cells allografted in mouse assessed as mouse survival at 0.5 mg/kg, ip qd administered from day 1 to 5 post intracerebral tumor-implantation relative to control; assay type: functional; conditions: route intraperitoneal
L1210 [2] = experiment: Antitumor activity against mouse L1210 cells allografted in mouse assessed as change in body weight at 6.25 mg/kg, ip qd administered from day 1 to 9 post ip tumor-implantation measured on day 5 relative to control; assay type: functional; conditions: route intraperitoneal
P388 = experiment: Antitumor activity against mouse P388 cells allografted in mouse assessed as mouse survival at 0.39 mg/kg, ip qd administered from day 1 to 9 post intracerebral tumor-implantation relative to control; assay type: functional; conditions: route intraperitoneal
[3] = Therapeutic ratio, ratio of highest active dose to lowest active for antitumor activity against in ip dosed mouse allografted with mouse L1210 cells; assay type: ADME, organism-based; conditions: in vivo, read-out: TI
L1210 [4] = experiment: Antitumor activity against mouse L1210 cells allografted in mouse assessed as mouse survival at 1.3 mg/kg, ip qd administered from day 1 to 9 post ip tumor-implantation relative to control; assay type: functional; conditions: route intraperitoneal
L1210 [5] = experiment: Antitumor activity against mouse L1210 cells allografted in mouse assessed as mouse survival at 2 mg/kg, ip qd administered from day 1 to 9 post ip tumor-implantation relative to control; assay type: functional; conditions: route intraperitoneal
[6] = system: Lewis lung carcinoma cell line; experiment: Antitumor activity against mouse LLC cells allografted in mouse assessed as mouse survival at 2 mg/kg, ip qd administered from day 5 to 15 post sc tumor-implantation relative to control; assay type: functional; conditions: route subcutaneous
L1210 [7] = experiment: Antitumor activity against mouse L1210 cells allografted in mouse assessed as change in body weight at 4.6 mg/kg, ip qd administered from day 1 to 9 post ip tumor-implantation measured on day 5 relative to control; assay type: functional; conditions: route intraperitoneal
[8] = Therapeutic ratio, ratio of highest active dose to lowest active for antitumor activity against in ip dosed mouse allografted with mouse LLC cells; assay type: organism-based, Lewis lung carcinoma; conditions: in vivo, read-out: TI

`CCOC(=O)NC1=C(N2CC2)C(=O)C(NC(=O)OCC)=C(N2CC2)C1=O` [DIAZIQUONE] gave a T/C [1] of 162%, an Activity (L1210 [2]) of -4.1 g and a T/C (P388) of 102%. For the same compound, the selectivity ratio [3] was 4, the T/C (L1210 [4]) was 160% and the T/C (L1210 [5]) was 201%. It also gave a T/C [6] of 134%, an Activity (L1210 [7]) of -4.6 g and a selectivity ratio [8] of 3.
